Assay results from ChEMBL document CHEMBL3734664, “Noncovalent Mutant Selective Epidermal Growth Factor Receptor Inhibitors: A Lead Optimization Case Study” (J Med Chem, 2015).
In brackets after ≈: the same amount, converted by molar mass.

Key:
physchem = conditions: buffer, pH 7.4, logD
Description: (§1) Lipophilicity, log D of the compound at pH 7.4 by microscale shake flask method

NCI-H292 = experiment: Antiproliferative activity against human NCI-H292 cells expressing wild type EGFR after 72 hrs by luminescence assay; format: functional, cell-based; conditions: NCI-H292, 72 h
[1] = Oral bioavailability in rat; format: ADME, organism-based; conditions: in vivo
[2] = molecular target: T1, Epidermal growth factor receptor (Homo sapiens, UniProt P00533)
[3] = molecular target: Epidermal growth factor receptor (Homo sapiens, UniProt P00533, L858R/T790M)
Mus musculus [4] = experiment: In vivo inhibition of EGFR in human NCI-H1975 cells xenografted in SCID mouse assessed as suppression of ERK phosphorylation at 300 mg/kg, po qd everyday for 3 days measured 2 to 8 hrs post last dose by electrochemiluminescent immunoassay; format: functional
[5] = molecular target: T1, Epidermal growth factor receptor; remark: listed apart in the source
Description: Inhibition of EGFR phosphorylation in human NCI-H292 cells preincubated for 1 hr followed by stimulation with EGF for 8 mins by electrochemiluminescent immunoassay

[6] = Plasma clearance in rat at 5 mg/kg, iv; format: ADME, organism-based
[7] = molecular target: T2, Epidermal growth factor receptor (Homo sapiens, UniProt P00533, 746-750DEL/T790M); experiment: Inhibition of EGFR T790M/del (746 to 750) deletion mutant phosphorylation in erlotinib-resistant human PC9 cells preincubated for 1 hr followed by stimulation with EGF for 8 mins by electrochemiluminescent immunoassay; format: cell-based, PC-9
[8] = Half life in rat; format: ADME, organism-based; conditions: in vivo
[9] = Volume of distribution at steady state in rat; format: ADME, organism-based; conditions: in vivo, read-out: Vdss
Hepatocyte [10] = experiment: Drug level in rat hepatocytes treated with (R)-1-[6-[2-(cis-3-Fluoro-4-methoxypiperidin-1-yl)pyrimidin-4-ylamino]-1-((S)-2,2,2-trifluoro-1-methylethyl)-1H-imidazo[4,5-c]pyridin-2-yl]ethanol; format: ADME, cell-based
Liver microsome [11] = experiment: Drug level in rat liver microsomes treated with (R)-1-[6-[2-(cis-3-Fluoro-4-methoxypiperidin-1-yl)pyrimidin-4-ylamino]-1-((S)-2,2,2-trifluoro-1-methylethyl)-1H-imidazo[4,5-c]pyridin-2-yl]ethanol; format: ADME
[12] = Unbound fraction in mouse plasma; format: ADME, cell-free
[13] = molecular target: T2, Epidermal growth factor receptor; experiment: Inhibition of human EGFR T790M/del (746 to 750) deletion mutant using Fl-EEPLYWSFPAKKK-CONH2 as substrate preincubated for 30 mins followed by addition of substrate measured after 30 mins by Morrison plot analysis; format: protein assay; conditions: read-out: Ki(app)
Mus musculus [14] = experiment: In vivo inhibition of EGFR in human NCI-H1975 cells xenografted in po dosed SCID mouse assessed as suppression of ERK phosphorylation administered as qd everyday for 3 days measured 2 to 8 hrs post last dose by electrochemiluminescent immunoassay; format: functional
Mus musculus [15] = experiment: In vivo inhibition of EGFR in human NCI-H1975 cells xenografted in SCID mouse assessed as suppression of AKT phosphorylation at 300 mg/kg, po qd everyday for 3 days measured 2 to 8 hrs post last dose by electrochemiluminescent immunoassay; format: functional
Mus musculus [16] = experiment: In vivo inhibition of EGFR phosphorylation in human NCI-H1975 cells xenografted in SCID mouse at 300 mg/kg, po qd everyday for 3 days measured 2 to 8 hrs post last dose by electrochemiluminescent immunoassay; format: functional
NCI-H1975 = experiment: Antiproliferative activity against human NCI-H1975 cells expressing EGFR T790M/L858R double mutant after 72 hrs by luminescence assay; format: functional, cell-based; conditions: NCI-H1975, 72 h
Mus musculus [17] = experiment: In vivo inhibition of EGFR in human NCI-H1975 cells xenografted in po dosed SCID mouse assessed as suppression of AKT phosphorylation administered as qd everyday for 3 days measured 2 to 8 hrs post last dose by electrochemiluminescent immunoassay; format: functional
[18] = Antiproliferative activity against erlotinib-resistant human PC9 cells expressing EGFR with ex19del and T790M mutations after 72 hrs by luminescence assay; format: functional, cell-based; conditions: PC-9, 72 h
Rattus norvegicus [19] = experiment: Unbound plasma clearance in rat at 5 mg/kg, iv; format: ADME, organism-based; conditions: in vivo
[20] = Plasma clearance in rat at 1 mg/kg, iv; format: ADME, organism-based
Rattus norvegicus [21] = experiment: Unbound plasma clearance in rat at 1 mg/kg, iv; format: ADME, organism-based; conditions: in vivo
Liver microsome [22] = experiment: Stability in human liver microsomes; format: ADME
Hepatocyte [23] = experiment: Stability in human hepatocytes; format: ADME, cell-based
[24] = Plasma clearance in rat at 0.5 mg/kg, iv; format: ADME, organism-based
Rattus norvegicus [25] = experiment: Unbound plasma clearance in rat at 0.5 mg/kg, iv; format: ADME, organism-based; conditions: in vivo
[26] = buffer, pH 7.4
Description: as §1

Liver microsome [27] = experiment: Drug metabolism in rat liver microsomes assessed as cis-3-Fluoro-1-{4-[2-((R)-1-hydroxyethyl)-1-((S)-2,2,2-trifluoro-1-methylethyl)-1Himidazo[4,5-c]pyridin-6-ylamino]pyrimidin-2-yl}piperidin-4-ol; format: ADME
Hepatocyte [28] = experiment: Drug metabolism in rat hepatocytes assessed as cis-3-Fluoro-1-{4-[2-((R)-1-hydroxyethyl)-1-((S)-2,2,2-trifluoro-1-methylethyl)-1Himidazo[4,5-c]pyridin-6-ylamino]pyrimidin-2-yl}piperidin-4-ol; format: ADME, cell-based
Homo sapiens = species on record: Homo sapiens; experiment: Selectivity ratio of Ki for human wild type EGFR to Ki for human EGFR T790M/L858R double mutant
[29] = Kinetic solubility of compound in PBS at pH 7.4 at 100 uM after 24 hrs; format: physicochemical; conditions: read-out: Kinetic_solubility
[30] = Oral bioavailability in rat at 10 mg/kg; format: ADME, organism-based; conditions: in vivo
[31] = Apparent permeability from apical to basolateral side in MDCK cells; format: ADME, cell-based, Canis lupus familiaris; conditions: dog
[32] = Chemical stability under acidic conditions assessed as amide hydrolysis to acid form; format: physicochemical

Epidermal growth factor receptor (Homo sapiens, UniProt P00533, L858R/T790M), sequence (P00533 25-1210 T790M/L858R limits assumed): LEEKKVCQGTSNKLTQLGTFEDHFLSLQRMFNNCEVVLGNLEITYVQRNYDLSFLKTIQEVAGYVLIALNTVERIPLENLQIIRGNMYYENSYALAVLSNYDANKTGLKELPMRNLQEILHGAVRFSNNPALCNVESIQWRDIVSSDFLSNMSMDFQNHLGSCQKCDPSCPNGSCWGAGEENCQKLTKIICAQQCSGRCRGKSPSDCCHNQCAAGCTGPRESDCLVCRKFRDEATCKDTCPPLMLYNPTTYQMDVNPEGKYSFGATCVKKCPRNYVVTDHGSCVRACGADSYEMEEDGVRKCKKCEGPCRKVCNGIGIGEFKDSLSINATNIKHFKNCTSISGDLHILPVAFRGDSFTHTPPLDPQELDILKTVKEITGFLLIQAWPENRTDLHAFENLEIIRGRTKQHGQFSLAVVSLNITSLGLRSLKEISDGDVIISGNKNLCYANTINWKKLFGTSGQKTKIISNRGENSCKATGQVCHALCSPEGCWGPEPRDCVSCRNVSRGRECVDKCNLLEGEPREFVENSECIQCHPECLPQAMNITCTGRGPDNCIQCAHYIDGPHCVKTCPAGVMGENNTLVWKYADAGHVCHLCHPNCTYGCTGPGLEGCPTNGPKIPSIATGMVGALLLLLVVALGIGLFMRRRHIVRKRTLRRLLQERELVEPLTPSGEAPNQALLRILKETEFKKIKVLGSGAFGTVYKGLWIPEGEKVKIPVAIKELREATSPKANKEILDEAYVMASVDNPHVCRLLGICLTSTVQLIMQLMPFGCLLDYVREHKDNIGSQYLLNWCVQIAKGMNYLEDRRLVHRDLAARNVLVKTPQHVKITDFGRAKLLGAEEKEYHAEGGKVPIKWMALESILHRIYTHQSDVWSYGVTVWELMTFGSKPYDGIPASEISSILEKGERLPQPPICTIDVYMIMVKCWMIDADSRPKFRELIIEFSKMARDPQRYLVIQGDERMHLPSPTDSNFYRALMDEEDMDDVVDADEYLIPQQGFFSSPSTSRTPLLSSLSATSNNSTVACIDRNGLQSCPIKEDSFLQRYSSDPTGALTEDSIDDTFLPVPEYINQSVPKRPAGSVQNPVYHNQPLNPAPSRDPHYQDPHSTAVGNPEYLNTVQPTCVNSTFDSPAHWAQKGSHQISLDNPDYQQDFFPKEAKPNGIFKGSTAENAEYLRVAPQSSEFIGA
T2 sequence (P00533 whole entry, looked up, stated change not applied): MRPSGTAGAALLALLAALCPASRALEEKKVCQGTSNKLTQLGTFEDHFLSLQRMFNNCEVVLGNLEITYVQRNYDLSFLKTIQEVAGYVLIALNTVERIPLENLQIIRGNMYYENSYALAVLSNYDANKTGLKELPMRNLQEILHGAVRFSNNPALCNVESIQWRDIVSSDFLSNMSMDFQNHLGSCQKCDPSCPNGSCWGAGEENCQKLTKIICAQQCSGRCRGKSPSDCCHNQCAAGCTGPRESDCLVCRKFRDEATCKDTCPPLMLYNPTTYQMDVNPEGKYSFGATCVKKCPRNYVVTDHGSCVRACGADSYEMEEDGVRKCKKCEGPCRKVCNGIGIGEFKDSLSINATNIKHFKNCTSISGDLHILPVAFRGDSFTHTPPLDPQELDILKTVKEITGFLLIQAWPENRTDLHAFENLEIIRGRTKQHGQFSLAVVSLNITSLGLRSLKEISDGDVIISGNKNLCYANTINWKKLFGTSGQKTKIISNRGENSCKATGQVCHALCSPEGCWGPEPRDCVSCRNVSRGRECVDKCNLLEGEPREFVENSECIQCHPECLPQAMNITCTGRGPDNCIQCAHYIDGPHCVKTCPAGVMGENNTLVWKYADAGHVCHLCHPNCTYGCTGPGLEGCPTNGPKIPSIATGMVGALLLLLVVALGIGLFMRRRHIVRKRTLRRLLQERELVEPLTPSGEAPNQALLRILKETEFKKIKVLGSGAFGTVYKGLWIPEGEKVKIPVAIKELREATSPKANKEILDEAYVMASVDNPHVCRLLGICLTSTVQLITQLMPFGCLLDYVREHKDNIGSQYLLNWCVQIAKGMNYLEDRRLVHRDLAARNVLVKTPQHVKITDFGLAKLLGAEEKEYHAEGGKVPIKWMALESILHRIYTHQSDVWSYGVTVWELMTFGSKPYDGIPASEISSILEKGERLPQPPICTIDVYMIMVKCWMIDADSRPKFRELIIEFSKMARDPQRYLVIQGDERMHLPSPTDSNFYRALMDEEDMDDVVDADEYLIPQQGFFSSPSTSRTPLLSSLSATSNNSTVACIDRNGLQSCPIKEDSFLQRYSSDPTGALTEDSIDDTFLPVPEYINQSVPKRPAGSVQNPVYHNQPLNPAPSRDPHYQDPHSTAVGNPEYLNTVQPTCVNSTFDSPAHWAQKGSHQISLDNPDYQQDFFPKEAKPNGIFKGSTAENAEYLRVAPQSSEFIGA
T1 sequence (P00533 whole entry): as the sequence (P00533 whole entry, looked up, stated change not applied) above

Row | Structure (SMILES) | logD (physchem) | Ki [2] | Ki [3] | IC50 [5] | clearance [6] | EC50 (NCI-H1975) | CL free (Rattus norvegicus [19]) | Stability (Hepatocyte [23]) | clearance [24] | CL free (Rattus norvegicus [25]) | further results
1 | CO[C@H]1CCN(c2nccc(Nc3cc4c(cn3)nc(CO)n4C(C)C)n2)C[C@H]1F (racemic) | – | 150 nM | 4.3 nM | > 10000 nM | – | 880 nM | – | – | – | – | clearance [20]: 107 mL/min/kg; CL free (Rattus norvegicus [21]): 584 mL/min/kg
2 | Cc1nc2cnc(Nc3ccnc(NCC(C)(C)S(C)(=O)=O)n3)cc2n1C(C)C | 1.4 | 1820 nM | – | – | – | – | – | Stable | – | – | clearance [20]: 158 mL/min/kg; Stability (Liver microsome [22]): Stable; CL free (Rattus norvegicus [21]): 707 mL/min/kg
3 | Cc1nc2cnc(Nc3ccnc(N4CC[C@H](O)[C@H](F)C4)n3)cc2n1C(C)C (racemic) | 1.5 | 910 nM | 13 nM | – | 90 mL/min/kg | 1600 nM | 545 mL/min/kg | – | – | – | –
4 | CC(C)n1c(CO)nc2cnc(Nc3ccnc(N4CC[C@H](O)[C@H](F)C4)n3)cc21 (racemic) | 1.6 | > 0.53 nM | 16 nM | > 10000 nM | – | > 10000 nM | – | – | 151 mL/min/kg | 382 mL/min/kg | –
5 | CO[C@H]1CCN(c2nccc(Nc3cc4c(cn3)nc([C@@H](C)O)n4[C@H](C)C(F)(F)F)n2)C[C@H]1F | 2.2 | 122 nM | 1.1 nM | > 10000 nM | 23 mL/min/kg | 112 nM | 334 mL/min/kg | – | – | – | Drug metabolism (Liver microsome [27]): metabolite_detected; EC50 (NCI-H292): 7800 nM; bioavailability [1]: 85%; IC50 [7]: 27 nM; half-life [8]: 1.7 h; Vd [9]: 3.7 L/kg; Ki [13]: 7 nM; Drug metabolism (Hepatocyte [28]): metabolite_detected; EC50 [18]: 90 nM
6 | Cc1nc2cnc(Nc3ccnc(OCC(C)(C)S(C)(=O)=O)n3)cc2n1C(C)C | 1.6 | 2100 nM | 52 nM | – | – | – | – | Stable | 53 mL/min/kg | 156 mL/min/kg | Stability (Liver microsome [22]): Stable
7 | COC1CCN(c2nccc(Nc3cc4c(cn3)nc(C)n4C(C)C)n2)CC1 | 2.4 | 875 nM | 19 nM | > 10000 nM | 40 mL/min/kg | 6700 nM | 620 mL/min/kg | Stable | – | – | Ratio Ki (Homo sapiens): 46; solubility kinetic at 24 h, 100 µM [29]: 87 µM (≈ 33.2 µg/mL); bioavailability [30]: 30%; Papp A→B [31]: 29 ×10⁻⁶ cm/s

Now from value to compound, other results behind:

Row | logD (physchem) | Ki [2] | Ki [3] | IC50 [5] | clearance [6] | EC50 (NCI-H1975) | CL free (Rattus norvegicus [19]) | Stability (Hepatocyte [23]) | clearance [24] | CL free (Rattus norvegicus [25]) | Structure (SMILES) | further results
8 | 1.8 | 313 nM | 2.5 nM | > 10000 nM | 71 mL/min/kg | 868 nM | 348 mL/min/kg | – | – | – | C[C@@H](O)c1nc2cnc(Nc3ccnc(N4CC[C@H](O)[C@H](F)C4)n3)cc2n1[C@H](C)C(F)(F)F | EC50 (NCI-H292): > 10000 nM; bioavailability [1]: 29%; inhibition in vivo at 300 mg/kg (Mus musculus [4]): > 90%; IC50 [7]: 81 nM; half-life [8]: 0.71 h; Vd [9]: 3.5 L/kg; Drug metabolism (Hepatocyte [10]): metabolite_detected; Drug metabolism (Liver microsome [11]): metabolite_detected; fraction unbound [12]: 0.207; Ki [13]: 6 nM; fEC50 (Mus musculus [14]): 0.3 µM; inhibition in vivo at 300 mg/kg (Mus musculus [15]): > 65%; inhibition in vivo at 300 mg/kg (Mus musculus [16]): > 90%; fEC50 (Mus musculus [17]): 0.5 µM; EC50 [18]: 170 nM
9 | 2 | > 2500 nM | – | – | – | – | – | – | 50 mL/min/kg | 200 mL/min/kg | Cc1nc2cnc(Nc3ccnc(/C=C/C(C)(C)O)n3)cc2n1C(C)C | –
10 | – | – | 17 nM | – | – | – | – | – | – | – | CCC(C)n1cnc2cnc(Nc3ccnc(N4CCC(OC)CC4)n3)cc21 (racemic; form 2) | logD [26]: 2.9
11 | 1.6 | – | 64 nM | – | – | – | – | Stable | 165 mL/min/kg | 934 mL/min/kg | Cc1nc2cnc(Nc3ccnc(N4CCC(S(C)(=O)=O)CC4)n3)cc2n1C(C)C | Stability (Liver microsome [22]): Stable
12 | 1.5 | 390 nM | 22 nM | – | – | – | – | – | 250 mL/min/kg | 909 mL/min/kg | Cc1nc2cnc(Nc3ccnc(NCC(C)(C)C(N)=O)n3)cc2n1C(C)C | Stability [32]: Unstable
